Test: ultimate aerobic biodegradability in aqueous medium, OECD method 301 B
Details: on the fourteenth day / after 14 days
Protocol: This test is an evaluation, in aqueous medium, of the ultimate aerobic biodegradability of a sample of the concentrated formulation according to the invention. This test is carried out according to the provisions of OECD method 301 B at the concentration of […] corresponding to an organic carbon content of 10 mg/l. The theoretical amount of carbon dioxide formed (CO2Th) in the “concentrated disinfectant detergent for floors, surfaces and materials at 10 mg/l of DOC” test is equal to 33.0 mg/l.
The physicochemical analysis is carried out according to standard ASTM D5291.
FIG. 1 represents the curves of results of degradation with respect to CO2Th.

**Q.** For CC(=O)[O-].[Na+] [sodium acetate], which percentage degradation is on record?
**A.** 81%
